# Laboratory results from patent publication US12673063B2, “Methods and materials for treatment of fibrosis” (Massachusetts Eye and Ear Infirmary, priority 2020, dated 2026).
# Tests used:
# [1] = tested on: human lung fibroblasts (HLF); experiment: CyQUANT Direct Cell Proliferation Assay, HLF; assay type: cell-based; conditions: 72 hours, 150 μM
# Description: (§1) We conducted mechanistic studies in cell culture to examine the cellular and molecular mechanisms underlying the robust effects of RUNX1 inhibition in the protection against bleomycin-induced lung injury. We tested the effect of RUNX1 inhibition on the proliferation of a human alveolar basal epithelial cell line (A549), primary human-derived pulmonary alveolar epithelial cells (HPAEpi), and in human-derived primary culture lung fibroblasts (HLF). For specific analyses we used escalating doses of Ro24-7429 (50-200 μM), Ro5-3335 (150 μM), pirfenidone (500 μg/ml) and nintedanib (5 μM), the latter two are currently approved drugs for IPF.
# A549 cells [2] = experiment: Lactate dehydrogenase (LDH) cell death assay, A549; assay type: cell-based; conditions: A549; Ro24-7429 50-200 μM, Ro5-3335 150 μM
# Procedure: (§2) Human type II alveolar epithelial cells (A549) were a generous gift from Dr. Lagares (Mass General Hospital). Cells were maintained in low glucose-DMEM containing 10% FBS, 2 mM L-glutamine, 100 U/ml penicillin and 100 μg/ml streptomycin at 37° C. in a humidified 5% C02 atmosphere.
# We tested the effect of RUNX1 inhibition on the proliferation of a human alveolar basal epithelial cell line (A549), primary human-derived pulmonary alveolar epithelial cells (HPAEpi), and in human-derived primary culture lung fibroblasts (HLF).
# A549 cells [3] = experiment: CyQUANT Direct Cell Proliferation Assay, A549; assay type: cell-based, human; conditions: for percent live cells compared to vehicle treated: 48 hours, Ro5-3335 150 μM, Ro24-7429 50 μM-200 μM, Pirfenidone 500 μg/ml, Nintedanib 5 μM; for anti-proliferative effect: 150 μM
# Procedure: as §2, with “atmosphere. Confluent cultures of cells were pretreated with Ro24-7429 for 24 hours followed by stimulation with 5 ng/ml of TGF-β1.” for “atmosphere.”
# as §1, with “We” for “We conducted mechanistic studies in cell culture to examine the cellular and molecular mechanisms underlying the robust effects of RUNX1 inhibition in the protection against bleomycin-induced lung injury. We”
# [4] = tested on: human lung fibroblasts (HLF); experiment: Lactate dehydrogenase (LDH) cell death assay, HLF; assay type: cell-based; conditions: Ro24-7429 50-200 μM, Ro5-3335 150 μM
# Description: as §1
Structure (SMILES),reduction in proliferation [1],cell death by LDH analysis (A549 cells [2]),percent live cells compared to vehicle treated (A549 cells [3]),"anti-proliferative effect (A549 cells [3]; A549, 48 hours)","anti-proliferative effect (A549 cells [3]; A549, 72 hours)",cell death by LDH analysis [4]
"O=C1CN=C(c2ccc[nH]2)c2cc(Cl)ccc2N1 [Ro5-3335, [7-chloro-5-(2-pyrryl)-3H-1,4 benzodiazapin-2-(H)-one]]",40%,Very low levels of cell death,significant reduction,32%,50%,Very low levels of cell death
COC(=O)c1ccc2c(c1)NC(=O)/C2=C(\Nc1ccc(N(C)C(=O)CN2CCN(C)CC2)cc1)c1ccccc1 [nintedanib],,,significant reduction,,,
